Laboratory results from patent publication US20170232083A1, “METHODS OF DIAGNOSIS AND TREATMENT OF CELIAC DISEASE IN CHILDREN” (priority 2014, published 2017).

Tested on: PBMC (polyclonal gluten-specific T cells) of paediatric and adult CD patients
Assay: IFN-γ ELISpot of PBMC after 3 day oral wheat challenge (SFU, % of maximal peptide response, dominance scores, EC50; Examples 5-6)
Assay type: cell-based, human
Conditions: for IFN-γ ELISpot response: after oral wheat challenge; for Cross-reactive T cell response: following wheat challenge
[1] = patient G, 11-17 yrs, cut-off 10 SFU
[2] = patient H, 11-17 yrs, cut-off 10 SFU
[3] = patient ID not given, 11-17 yrs, cut-off 10 SFU
[4] = patient ID not given, max peptide 95 SFU
[5] = patient P, 11-17 yrs, cut-off 21.6 SFU
[6] = patient Q, 11-17 yrs, cut-off 10 SFU
[7] = patient U, H, 11-17 yrs, cut-off 10 SFU
[8] = patient V, 6-10 yrs, cut-off 10 SFU
[9] = patient Y, 6-10 yrs, cut-off 10 SFU
[10] = patient eleven, 6-10 yrs, cut-off 10 SFU
[11] = patient four, 3-5yrs, cut-off 10 SFU
[12] = patient four, max peptide 44 SFU
[13] = patient seven, 6-10 yrs, cut-off 10.5 SFU
[14] = patient seven, max peptide 27 SFU
[15] = patient ten, 3-5yrs, cut-off 10 SFU
[16] = patient three, 6-10 yrs, cut-off 10.5 SFU
[17] = patient two, 3-5yrs, cut-off 10 SFU
[18] = patient two, max peptide 60 SFU
[19] = patient A, 11-17 yrs, cut-off 10 SFU
[20] = patient E, H, 11-17 yrs, cut-off 10 SFU
[21] = patient F, 11-17 yrs, cut-off 10 SFU
[22] = patient H (HLA-DQ2.5 homozygote), 3-5yrs, cut-off 10 SFU
[23] = patient N, 3-5yrs, cut-off 10 SFU
[24] = patient twelve, 11-17 yrs, cut-off 10 SFU

FLQPEQPFPEQPEQPYPEQPEQPFPQ
IFN-γ ELISpot response [1]: 1 SFU
IFN-γ ELISpot response [2]: 6 SFU
IFN-γ ELISpot response [3]: 23 SFU
Significant response as percentage of maximal peptide SFU [4]: ′′ (21-40% = ′′)
Significant response as percentage of maximal peptide SFU (patient J, max peptide 196 SFU): ′ (11-20% = ′)
Significant response as percentage of maximal peptide SFU (patient K, max peptide 53 SFU): ′′ (21-40% = ′′)
IFN-γ ELISpot response [5]: 11 SFU
IFN-γ ELISpot response [6]: 18 SFU
Significant response as percentage of maximal peptide SFU (patient Q, max peptide 97 SFU): ′ (11-20% = ′)
IFN-γ ELISpot response [7]: 26 SFU
Significant response as percentage of maximal peptide SFU (patient U, max peptide 81 SFU): ′′ (21-40% = ′′)
IFN-γ ELISpot response [8]: 12 SFU
Significant response as percentage of maximal peptide SFU (patient V, max peptide 35 SFU): ′′ (21-40% = ′′)
IFN-γ ELISpot response [9]: 6 SFU
IFN-γ ELISpot response [10]: 15 SFU
Significant response as percentage of maximal peptide SFU (patient eleven, max peptide 57 SFU): ′′ (21-40% = ′′)
IFN-γ ELISpot response [11]: 10 SFU
Significant response as percentage of maximal peptide SFU [12]: ′′ (21-40% = ′′)
IFN-γ ELISpot response [13]: 20 SFU
Significant response as percentage of maximal peptide SFU [14]: + (>70% = +)
IFN-γ ELISpot response [15]: 3 SFU
IFN-γ ELISpot response [16]: 22 SFU
IFN-γ ELISpot response [17]: 12 SFU
Significant response as percentage of maximal peptide SFU [18]: ′ (11-20% = ′)

FPQPEQEFPQPQQ
IFN-γ ELISpot response [19]: 6 SFU
IFN-γ ELISpot response [20]: 49 SFU
Significant response as percentage of maximal peptide SFU (patient E, max peptide 224 SFU): ′′ (21-40% = ′′)
IFN-γ ELISpot response [21]: 21 SFU
Significant response as percentage of maximal peptide SFU (patient F, max peptide 178 SFU): ′ (11-20% = ′)
IFN-γ ELISpot response [1]: 4 SFU
IFN-γ ELISpot response [22]: 13 SFU
IFN-γ ELISpot response [2]: 9 SFU
IFN-γ ELISpot response [3]: 26 SFU
Significant response as percentage of maximal peptide SFU [4]: ′′ (21-40% = ′′)
Significant response as percentage of maximal peptide SFU (patient II, max peptide 15 SFU): + (>70% = +)
Significant response as percentage of maximal peptide SFU (patient J, max peptide 196 SFU): + (>70% = +)
Significant response as percentage of maximal peptide SFU (patient K, max peptide 53 SFU): ′′′ (41-70% = ′′′)
Significant response as percentage of maximal peptide SFU (patient M, max peptide 48 SFU): ′′ (21-40% = ′′)
IFN-γ ELISpot response [23]: 3 SFU
IFN-γ ELISpot response [5]: 11 SFU
IFN-γ ELISpot response [6]: 27 SFU
Significant response as percentage of maximal peptide SFU (patient Q, max peptide 97 SFU): ′′ (21-40% = ′′)
IFN-γ ELISpot response [7]: 15 SFU
Significant response as percentage of maximal peptide SFU (patient U, max peptide 81 SFU): ′ (11-20% = ′)
IFN-γ ELISpot response [8]: 9 SFU
IFN-γ ELISpot response [9]: 3 SFU
IFN-γ ELISpot response [10]: 1 SFU
Significant response as percentage of maximal peptide SFU (patient five, max peptide 48 SFU): ′′ (21-40% = ′′)
IFN-γ ELISpot response [11]: 10 SFU
Significant response as percentage of maximal peptide SFU [12]: ′′ (21-40% = ′′)
IFN-γ ELISpot response [13]: 11 SFU
Significant response as percentage of maximal peptide SFU [14]: ′′′ (41-70% = ′′′)
IFN-γ ELISpot response [15]: 5 SFU
IFN-γ ELISpot response [16]: 158 SFU
IFN-γ ELISpot response [24]: 7 SFU
IFN-γ ELISpot response [17]: 13 SFU
Significant response as percentage of maximal peptide SFU [18]: ′ (11-20% = ′)

FPQPQQQFPQPQQ
IFN-γ ELISpot response [19]: 2 SFU
IFN-γ ELISpot response [20]: 12 SFU
Significant response as percentage of maximal peptide SFU (patient E, max peptide 224 SFU): (6-10% = ^)
IFN-γ ELISpot response [21]: 4 SFU
IFN-γ ELISpot response [1]: 1 SFU
IFN-γ ELISpot response [22]: 6 SFU
IFN-γ ELISpot response [2]: 5 SFU
IFN-γ ELISpot response [3]: 1 SFU
Significant response as percentage of maximal peptide SFU (patient II, max peptide 15 SFU): + (>70% = +)
IFN-γ ELISpot response [23]: 1 SFU
IFN-γ ELISpot response [5]: 4 SFU
IFN-γ ELISpot response [6]: 10 SFU
Significant response as percentage of maximal peptide SFU (patient Q, max peptide 97 SFU): ′ (11-20% = ′)
IFN-γ ELISpot response [7]: 4 SFU
IFN-γ ELISpot response [8]: 2 SFU
IFN-γ ELISpot response [9]: 6 SFU
IFN-γ ELISpot response [10]: 1 SFU
IFN-γ ELISpot response [11]: 5 SFU
IFN-γ ELISpot response [13]: 2 SFU
IFN-γ ELISpot response [15]: 4 SFU
IFN-γ ELISpot response [16]: 1 SFU
IFN-γ ELISpot response [24]: 5 SFU
IFN-γ ELISpot response [17]: 0 SFU

FPQTEQPEQPFPQP
Cross-reactive T cell response (subject A, 11-17yrs): 1 SFU
Cross-reactive T cell response (subject D, 11-17yrs): 0 SFU
Cross-reactive T cell response (subject E, 11-17yrs): 3 SFU
Cross-reactive T cell response (subject F, 11-17yrs): 2 SFU
Cross-reactive T cell response (subject G, 11-17yrs): 2 SFU
Cross-reactive T cell response (subject H): 1 SFU
Cross-reactive T cell response (subject I (3-5yrs/6-10yrs part)): 0 SFU
Significant response as a percentage of maximal peptide SFU (subject J): ′′ (21-40% = ′′)
Cross-reactive T cell response (subject J (3-5yrs/6-10yrs part)): 67 SFU
Significant response as a percentage of maximal peptide SFU (subject K): ′′ (21-40% = ′′)
Cross-reactive T cell response (subject K (3-5yrs/6-10yrs part)): 19 SFU
Cross-reactive T cell response (subject P, 11-17yrs): 3 SFU
Significant response as a percentage of maximal peptide SFU (subject Q, 11-17yrs): ′ (11-20% = ′)
Cross-reactive T cell response (subject Q, 11-17yrs): 10 SFU
Cross-reactive T cell response (subject T, 11-17yrs): 7 SFU
Cross-reactive T cell response (subject U, 11-17yrs): 5 SFU
Cross-reactive T cell response (subject V (3-5yrs/6-10yrs part)): 6 SFU
Cross-reactive T cell response (subject W (3-5yrs/6-10yrs part)): 5 SFU
Cross-reactive T cell response (subject Y (3-5yrs/6-10yrs part)): 3 SFU
Cross-reactive T cell response (subject five (3-5yrs/6-10yrs part)): 5 SFU
Cross-reactive T cell response (subject nine, 11-17yrs): 0 SFU
Cross-reactive T cell response (subject seven (3-5yrs/6-10yrs part)): 5 SFU
Cross-reactive T cell response (subject six (3-5yrs/6-10yrs part)): 4 SFU
Significant response as a percentage of maximal peptide SFU (subject ten): + (>70% = +)
Cross-reactive T cell response (subject ten (3-5yrs/6-10yrs part)): 13 SFU
Cross-reactive T cell response (subject two (3-5yrs/6-10yrs part)): 3 SFU

GIIQPQQPAQL
IFN-γ ELISpot response [1]: 0 SFU
IFN-γ ELISpot response [2]: 1 SFU
IFN-γ ELISpot response [3]: 2 SFU
Significant response as percentage of maximal peptide SFU (patient II, max peptide 15 SFU): + (>70% = +)
Significant response as percentage of maximal peptide SFU (patient K, max peptide 53 SFU): ′′ (21-40% = ′′)
IFN-γ ELISpot response [5]: 7 SFU
IFN-γ ELISpot response [6]: 0 SFU
IFN-γ ELISpot response [7]: 4 SFU
IFN-γ ELISpot response [8]: 5 SFU
IFN-γ ELISpot response [9]: 2 SFU
IFN-γ ELISpot response [10]: 1 SFU
IFN-γ ELISpot response [11]: 0 SFU
IFN-γ ELISpot response [13]: 3 SFU
IFN-γ ELISpot response [15]: 5 SFU
IFN-γ ELISpot response [16]: 3 SFU
IFN-γ ELISpot response [17]: 0 SFU

GLERPWQEQPLPPQ
IFN-γ ELISpot response [19]: 4 SFU
IFN-γ ELISpot response [20]: 0 SFU
IFN-γ ELISpot response [21]: 0 SFU
IFN-γ ELISpot response [1]: 0 SFU
IFN-γ ELISpot response [22]: 0 SFU
IFN-γ ELISpot response [2]: 16 SFU
Significant response as percentage of maximal peptide SFU (patient H, max peptide 17 SFU): + (>70% = +)
IFN-γ ELISpot response [3]: 1 SFU
IFN-γ ELISpot response [23]: 0 SFU
IFN-γ ELISpot response [5]: 7 SFU
IFN-γ ELISpot response [6]: 22 SFU
Significant response as percentage of maximal peptide SFU (patient Q, max peptide 97 SFU): ′′ (21-40% = ′′)
IFN-γ ELISpot response [7]: 1 SFU
IFN-γ ELISpot response [8]: 7 SFU
IFN-γ ELISpot response [9]: 9 SFU
IFN-γ ELISpot response [10]: 1 SFU
IFN-γ ELISpot response [11]: 6 SFU
IFN-γ ELISpot response [13]: 11 SFU
Significant response as percentage of maximal peptide SFU [14]: ′′′ (41-70% = ′′′)
IFN-γ ELISpot response [15]: 5 SFU
IFN-γ ELISpot response [16]: 3 SFU
IFN-γ ELISpot response [24]: 2 SFU
IFN-γ ELISpot response [17]: 1 SFU
